Data published in patent US20240336608A1, “IL4I1 INHIBITORS AND METHODS OF USE” (Merck Sharp & Dohme LLC, priority 2023, published 2024).

The molecules below were run against T1, recombinant IL4I1 (Homo sapiens, UniProt Q96RQ9) (assay: IL4I1 Enzymatic Assay (Amplex Red/HRP coupled detection of H2O2, fluorescence)). Conditions: 1 nM recombinant IL4I1; four-hour pre-incubation with compound; 1 mM each Phe, Tyr, Trp; ten-point titration.
T1 construct: purchased R&D Systems 5684-AO-020
T1 sequence (Q96RQ9 22-567): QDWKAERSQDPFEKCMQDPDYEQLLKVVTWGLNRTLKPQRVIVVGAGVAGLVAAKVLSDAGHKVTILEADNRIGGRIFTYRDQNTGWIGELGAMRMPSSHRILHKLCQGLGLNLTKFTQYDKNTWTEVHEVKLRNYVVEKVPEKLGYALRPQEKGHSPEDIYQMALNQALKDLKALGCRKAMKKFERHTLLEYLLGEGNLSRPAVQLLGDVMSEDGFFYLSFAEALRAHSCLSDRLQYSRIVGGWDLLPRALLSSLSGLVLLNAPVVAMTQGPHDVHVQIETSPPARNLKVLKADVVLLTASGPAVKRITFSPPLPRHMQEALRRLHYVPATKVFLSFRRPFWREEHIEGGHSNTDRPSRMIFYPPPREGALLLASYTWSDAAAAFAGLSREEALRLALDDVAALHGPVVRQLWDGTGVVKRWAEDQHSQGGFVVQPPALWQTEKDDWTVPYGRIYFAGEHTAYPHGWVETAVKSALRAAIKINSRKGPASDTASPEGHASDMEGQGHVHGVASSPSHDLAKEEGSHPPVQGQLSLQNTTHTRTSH
Format: biochemical
Outline: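 Recombinant IL4I1 (1 nM final) pre-incubated 4 h at ambient temperature with compound (0.5% DMSO) in 50 mM Hepes pH 7.0, 0.005% Tween20; reaction started with 1 mM each Phe/Tyr/Trp plus excess Amplex Red/HRP, run 120 min. H2O2 read as resorufin fluorescence; EC50 from 10-point four-parameter fit.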

Compound	EC50
Cc1ccc(-n2cc(C(=O)NCc3cc(-c4ccccn4)on3)nn2)c(C)n1 [Example 238, 1-(2,6-dimethylpyridin-3-yl)-N-((5-(pyridin-2-yl)isoxazol-3-yl)methyl)-1H-1,2,3-triazole-4-carboxamide]	76 nM
O=C(NCc1nnc(-c2ccccc2)s1)c1nnn2ccccc12 [Example 239, N-((5-phenyl-1,3,4-thiadiazol-2-yl)methyl)-[1,2,3]triazolo[1,5-a]pyridine-3-carboxamide]	591 nM
O=C(NCc1nnc(-c2ccccc2)s1)c1cn(-c2ccncc2)nn1 [Example 240, N-((5-phenyl-1,3,4-thiadiazol-2-yl)methyl)-1-(pyridin-4-yl)-1H-1,2,3-triazole-4-carboxamide]	163 nM
O=C(NCc1nnc(-c2ccccc2)s1)c1cn(Cc2ccccc2)nn1 [Example 241, 1-benzyl-N-((5-phenyl-1,3,4-thiadiazol-2-yl)methyl)-1H-1,2,3-triazole-4-carboxamide]	11 nM
O=C(NCc1nnc(-c2ccccc2)s1)c1cn(-c2cccnc2)nn1 [Example 242, N-((5-phenyl-1,3,4-thiadiazol-2-yl)methyl)-1-(pyridin-3-yl)-1H-1,2,3-triazole-4-carboxamide]	705 nM
CC(C)(O)c1cc(C(=O)NCc2cc(-c3ccccc3)no2)on1 [Example 247, 3-(2-hydroxypropan-2-yl)-N-((3-phenylisoxazol-5-yl)methyl)isoxazole-5-carboxamide]	916 nM
O=C(NCc1nnc(-c2ccncc2)s1)c1cn(CC(F)(F)F)nn1 [Example 249, N-((5-(pyridin-4-yl)-1,3,4-thiadiazol-2-yl)methyl)-1-(2,2,2-trifluoroethyl)-1H-1,2,3-triazole-4-carboxamide]	15 nM
O=C(NCc1cc(-c2ccccc2)no1)c1cn(C2COC2)nn1 [Example 253, 1-(oxetan-3-yl)-N-((3-phenylisoxazol-5-yl)methyl)-1H-1,2,3-triazole-4-carboxamide]	209 nM
CC(C)(O)c1cc(C(=O)NCc2ccc(-c3ccccc3)nn2)on1 [Example 254, 3-(2-hydroxypropan-2-yl)-N-((6-phenylpyridazin-3-yl)methyl)isoxazole-5-carboxamide]	995 nM
COC(=O)C(C)(C)n1cc(C(=O)NCc2nnc(-c3ccccc3)s2)nn1 [Example 255, methyl 2-methyl-2-(4-(((5-phenyl-1,3,4-thiadiazol-2-yl)methyl)carbamoyl)-1H-1,2,3-triazol-1-yl)propanoate]	45 nM
CC[C@H](c1ccc(F)cc1)n1cc(C(=O)NCc2nnc(-c3ccccc3)s2)nn1 [Example 256, (R)-1-(1-(4-fluorophenyl)propyl)-N-((5-phenyl-1,3,4-thiadiazol-2-yl)methyl)-1H-1,2,3-triazole-4-carboxamide]	3 nM
CC[C@@H](c1ccc(F)cc1)n1cc(C(=O)NCc2nnc(-c3ccccc3)s2)nn1 [Example 257, (S)-1-(1-(4-fluorophenyl)propyl)-N-((5-phenyl-1,3,4-thiadiazol-2-yl)methyl)-1H-1,2,3-triazole-4-carboxamide]	19 nM
Cc1ccc(-n2cc(C(=O)NCc3nnc(-c4ccncc4)s3)nn2)c(C)n1 [Example 265, 1-(2,6-dimethylpyridin-3-yl)-N-((5-(pyridin-4-yl)-1,3,4-thiadiazol-2-yl)methyl)-1H-1,2,3-triazole-4-carboxamide]	16 nM
Cc1ccc(-n2cc(C(=O)NCc3nnc(-c4ccccc4)s3)nn2)cn1 [Example 267, 1-(6-methylpyridin-3-yl)-N-((5-phenyl-1,3,4-thiadiazol-2-yl)methyl)-1H-1,2,3-triazole-4-carboxamide]	145 nM
CC(C)(C(N)=O)n1cc(C(=O)NCc2cc(-c3ccccc3)on2)nn1 [Example 271, 1-(1-amino-2-methyl-1-oxopropan-2-yl)-N-((5-phenylisoxazol-3-yl)methyl)-1H-1,2,3-triazole-4-carboxamide]	27 nM
O=C(NCc1nnc(-c2ccccc2)s1)c1cn(C(F)(F)F)nn1 [Example 274, N-((5-phenyl-1,3,4-thiadiazol-2-yl)methyl)-1-(trifluoromethyl)-1H-1,2,3-triazole-4-carboxamide]	31 nM
Cc1nc(C2COC2)ccc1-n1cc(C(=O)NCc2nnc(-c3ccccc3)s2)nn1 [Example 277, 1-(2-methyl-6-(oxetan-3-yl)pyridin-3-yl)-N-((5-phenyl-1,3,4-thiadiazol-2-yl)methyl)-1H-1,2,3-triazole-4-carboxamide]	179 nM
Cc1ccc(-n2cc(C(=O)NCc3nnc(-c4ccccc4)s3)nn2)c(Br)n1 [Example 279, 1-(2-bromo-6-methylpyridin-3-yl)-N-((5-phenyl-1,3,4-thiadiazol-2-yl)methyl)-1H-1,2,3-triazole-4-carboxamide]	8 nM
Cc1ncc(-n2cc(C(=O)NCc3nnc(-c4ccccc4)s3)nn2)c(C)n1 [Example 280, 1-(2,4-dimethylpyrimidin-5-yl)-N-((5-phenyl-1,3,4-thiadiazol-2-yl)methyl)-1H-1,2,3-triazole-4-carboxamide]	859 nM

The remaining molecules from weak to strong by EC50, led by results:

EC50	Compound
511 nM	Cc1ccc(-n2cc(C(=O)NCc3cc(-c4nccs4)on3)nn2)c(C)n1 [Example 273, 1-(2,6-dimethylpyridin-3-yl)-N-((5-(thiazol-2-yl)isoxazol-3-yl)methyl)-1H-1,2,3-triazole-4-carboxamide]
480 nM	Cc1ccc(-n2cc(C(=O)NCc3nnc(-c4cccnc4)s3)nn2)c(C)n1 [Example 264, 1-(2,6-dimethylpyridin-3-yl)-N-((5-(pyridin-3-yl)-1,3,4-thiadiazol-2-yl)methyl)-1H-1,2,3-triazole-4-carboxamide]
303 nM	CC(C)(O)c1cc(C(=O)NCc2cc(-c3ccccc3)on2)on1 [Example 248, 3-(2-hydroxypropan-2-yl)-N-((5-phenylisoxazol-3-yl)methyl)isoxazole-5-carboxamide]
104 nM	O=C(NCc1cc(-c2ccncc2)on1)c1cn(C2CC2)nn1 [Example 246, 1-cyclopropyl-N-((5-(pyridin-4-yl)isoxazol-3-yl)methyl)-1H-1,2,3-triazole-4-carboxamide]
69 nM	Cc1cc(C(=O)NCc2nnc(-c3ccccc3)s2)ns1 [Example 260, 5-methyl-N-((5-phenyl-1,3,4-thiadiazol-2-yl)methyl)isothiazole-3-carboxamide]
26 nM	Cc1ccc(-n2cc(C(=O)NCc3cc(-c4ccncc4)on3)nn2)c(C)n1 [Example 266, 1-(2,6-dimethylpyridin-3-yl)-N-((5-(pyridin-4-yl)isoxazol-3-yl)methyl)-1H-1,2,3-triazole-4-carboxamide]
25 nM	Cc1ccc(-n2cc(C(=O)NCc3ccc(-c4ccccc4)nn3)nn2)c(C)n1 [Example 261, 1-(2,6-dimethylpyridin-3-yl)-N-((6-phenylpyridazin-3-yl)methyl)-1H-1,2,3-triazole-4-carboxamide]
23 nM	O=C(NCc1nnc(-c2ccncc2)s1)c1cn(C2CC2)nn1 [Example 243, 1-cyclopropyl-N-((5-(pyridin-4-yl)-1,3,4-thiadiazol-2-yl)methyl)-1H-1,2,3-triazole-4-carboxamide]
20 nM	Cc1cnc(-n2cc(C(=O)NCc3nnc(-c4ccccc4)s3)nn2)c(C)n1 [Example 270, 1-(3,5-dimethylpyrazin-2-yl)-N-((5-phenyl-1,3,4-thiadiazol-2-yl)methyl)-1H-1,2,3-triazole-4-carboxamide]
15 nM	Cc1ccc(-n2cc(C(=O)NCc3nnc(-c4ccccc4)s3)nn2)c(Cl)n1 [Example 278, 1-(2-chloro-6-methylpyridin-3-yl)-N-((5-phenyl-1,3,4-thiadiazol-2-yl)methyl)-1H-1,2,3-triazole-4-carboxamide]
12 nM	O=C(NCc1nnc(-c2ccccc2)s1)c1cn(C(F)F)nn1 [Example 272, 1-(difluoromethyl)-N-((5-phenyl-1,3,4-thiadiazol-2-yl)methyl)-1H-1,2,3-triazole-4-carboxamide]
11 nM	O=C(NCc1nnc(-c2ccccc2)s1)c1cn([C@H]2C[C@H](O)C2)nn1 [Example 281]
10 nM	CC(C)n1cc(C(=O)NCc2nnc(-c3ccncc3)s2)nn1 [Example 269, 1-isopropyl-N-((5-(pyridin-4-yl)-1,3,4-thiadiazol-2-yl)methyl)-1H-1,2,3-triazole-4-carboxamide]
8 nM	O=C(NCc1nnc(-c2ccccc2)s1)c1cn(C2CC2)nn1 [Example 268, 1-cyclopropyl-N-((5-phenyl-1,3,4-thiadiazol-2-yl)methyl)-1H-1,2,3-triazole-4-carboxamide]
7 nM	Cc1ccc(-n2cc(C(=O)NCc3cc(-c4ccccc4)on3)nn2)c(C)n1 [Example 237, 1-(2,6-dimethylpyridin-3-yl)-N-((5-phenylisoxazol-3-yl)methyl)-1H-1,2,3-triazole-4-carboxamide]
5 nM	O=C(NCc1nnc(-c2ccccc2)s1)c1cn([C@H]2C[C@@H](O)C2)nn1 [Example 282]
